A value given as a limit tells only on which side of the number the result lay.

Experiment [1] concerns Human LAD2 cells. In words: Mast Cell Beta-Hexosaminidase Release Assay (Cortistatin-14 induced degranulation). It is filed as cell-based. The following applies: 500 nM Cortistatin-14, percent beta-hexosaminidase release, read-out: MRGPRX2 Antagonist Activity. The protocol: Human LAD2 cells (NIH) were maintained in an incubator at 37° C. with 5% CO2 and cultured in StemPro-34 serum-free media (Gibco 10639011) supplemented with 2 mM L-glutamine, 100 U/ml penicillin, […] streptomycin and 100 ng/ml SCF (Invitrogen PEP0860), at a concentration of 2-5×10^5 cells/mL, with hemidepletion every 1-2 weeks.
Cells were transferred to SCF-Free medium at 2.5×10^5 cells/mL and kept in an incubator overnight. On the day of the assay, cells were washed twice in Assay Buffer (final concentrations 10 mM HEPES, 137 mM NaCl, 5.6 mM D-glucose, 2.7 mM KCl, 1 mM MgCl, 1.8 mM CalCl2, 0.4 mM Na2HPO4.7H2O, 0.04% BSA, pH=7.4) and plated in a 96-well v-bottom plate at 20,000 cells per well in 80 μL Assay Buffer. Antagonist compounds solubilized at 10 mM in DMSO were diluted in Assay Buffer to 10× final desired concentrations as a 10-point curve (10 μM final top concentration with 1:3 serial dilutions) and 10 μL added per well. Plates were then incubated for 1 hour at 37° C. Agonists were diluted in Assay Buffer to 10× desired concentrations and 10 μL of the appropriate agonist added to each well. The final concentration of Cortistatin-14 (Tocris 3374) used in antagonist assays was 500 nM. Final concentrations of DMSO were kept consistent across the plate. Plates were then incubated in a warm air oven for 30 minutes at 37° C., followed by centrifugation at 4° C. for 5 minutes at 450×g. 50 μL supernatant from each well was then transferred to a 96-well flat bottom plate containing 100 μL substrate solution per well (3.5 mg/mL p-Nitrophenyl-N-acetyl-$-D-glucosaminide (Sigma 487052) in Citrate Buffer containing a final concentration of 40 mM Citric Acid, 20 mM Na2HPO4.7H2O, pH=4.5). To the cell pellets left in the remaining assay buffer, 150 μL 0.1% Triton-X-100 was then added to each well, resuspended by pipetting up and down, and 50 μL cell lysates transferred to a second 96-well flat bottom plate containing 100 μL substrate solution per well. Plates containing transferred supernatant and cell lysates were then incubated in a warm air oven for 90 minutes at 37° C. After incubation, 50 μL of 400 mM Glycine buffer (pH 10.7) was added into each well and the plate was read on a Molecular Devices SpectraMax iD5 plate reader (absorbance at 405 nm with reference filter at 620 nm). After background subtraction, the percentage degranulation (percent beta-hexosaminidase release) was calculated as 100×(supernatant values)/(supernatant+lysate values), followed by analysis using GraphPad Prism software to calculate an IC50 value for each compound.
The activity ranges are denoted as follows: “+++++” denotes antagonist activity <50 nM; “++++” denotes antagonist activity between 51 and 100 nM; “+++” denotes activity between 101 and 500 nM; “++” denotes activity between 501 and 1000 nM; and “+” denotes activity >1000 nM.

The target in experiment [2] is T1, human MRGPRX2 (Homo sapiens, UniProt Q96LB1).
T1 construct: expressed in transfected cells
T1 sequence (Q96LB1 1-330): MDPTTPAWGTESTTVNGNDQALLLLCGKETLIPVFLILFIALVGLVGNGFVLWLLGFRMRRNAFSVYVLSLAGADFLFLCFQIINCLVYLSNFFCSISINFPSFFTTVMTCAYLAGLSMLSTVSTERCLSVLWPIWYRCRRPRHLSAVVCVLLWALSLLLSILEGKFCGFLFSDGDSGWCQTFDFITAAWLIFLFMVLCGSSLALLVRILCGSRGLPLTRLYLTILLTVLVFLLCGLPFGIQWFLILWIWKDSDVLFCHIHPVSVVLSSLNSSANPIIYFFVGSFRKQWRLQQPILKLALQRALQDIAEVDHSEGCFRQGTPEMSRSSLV
The experiment in a line: MRGPRX2 Activity: IP-One HTRF antagonist assay in CHO cells stably expressing human MRGPRX2, versus Cortistatin-14. It is filed as cell-based. The settings on record: versus 0.3 uM Cortistatin-14 agonist, IP-1 HTRF, read-out: MRGPR2 Antagonist Activity. An outline of the steps:
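CHO cells stably expressing human MRGPRX2 were given compound as a 10-point curve (30 uM top, 1:3) with 0.3 μM Cortistatin-14 in LiCl buffer, pH 8. Incubation was 1 hr at 37° C, then 1 hr at room temperature. IP-1 was read by HTRF ratio and fitted to IC50.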
For orientation: In TR-FRET formats the signal depends on donor and acceptor labels being close together.

For `O=C(N[C@H]1CC[C@@H](Nc2cccc3nc(C(F)F)cn23)CC1)c1ccccc1NCC(F)(F)F` [2-143], the IC50 in experiment [1] and in experiment [2] was under 50 nM in each case. As to `COc1ccc(C(=O)N[C@H]2CC[C@@H](Nc3cccc4nc(C(F)(F)F)cn34)CC2)cc1` [1-1], the IC50 in experiment [1] and in experiment [2] was under 50 nM each time. With `O=C(N[C@H]1CC[C@@H](Nc2cccc3nc(C(F)(F)F)cn23)CC1)c1cccc2cnsc12` [2-52], the IC50 in experiment [1] was under 50 nM. Regarding `O=C(N[C@H]1CC[C@@H](Nc2cccc3nc(C(F)F)cn23)CC1)c1ccnc2[nH]ccc12` [2-24], the IC50 in experiment [1] and in experiment [2] was under 50 nM in each case. In the case of `O=C(N[C@H]1CC[C@@H](Nc2cccc3nc(C(F)F)cn23)CC1)c1ccccc1NCC(F)F` [2-142], the IC50 in experiment [1] and in experiment [2] was under 50 nM each time. `O=C(N[C@H]1CC[C@@H](Nc2cccc3nc(C(F)(F)F)cn23)CC1)c1cccc2cn[nH]c12` [2-10]: the IC50 in experiment [1] and in experiment [2] was under 50 nM throughout.

On to `Cn1cc(C(=O)N[C@H]2CC[C@@H](Nc3cccc4nc(C(F)(F)F)cn34)CC2)c(Cl)n1` [2-137], for which the IC50 in experiment [1] and in experiment [2] was under 50 nM throughout. As to `O=C(N[C@H]1CC[C@@H](Nc2cccc3nc(C(F)(F)F)cn23)CC1)c1cn(C(F)F)nc1C(F)F` [2-228], the IC50 in experiment [1] and in experiment [2] was under 50 nM throughout.

On to `Cn1cc(C(=O)N[C@H]2CC[C@@H](Nc3cccc4nc(C(F)(F)F)cn34)CC2)c2ccccc21` [2-160], for which the IC50 in experiment [1] and in experiment [2] was under 50 nM throughout. Turning to `O=C(N[C@H]1CC[C@@H](Nc2cccc3nc(C(F)F)cn23)CC1)c1ccc(NCC(F)F)cc1` [2-61], in experiment [1], the IC50 is under 50 nM. In the case of `COc1ccc(C(=O)N[C@H]2CC[C@@H](Nc3cccc4nc(C(F)F)cn34)CC2)c(NCC(F)(F)F)c1` [2-28], the IC50 in experiment [1] and in experiment [2] was under 50 nM in each case.

Turning to `CNc1ccccc1C(=O)N[C@H]1CC[C@@H](Nc2cccc3nc(C(F)(F)F)cn23)CC1` [2-71], in experiment [1], the IC50 was under 50 nM. With `CS(=O)(=O)Nc1cccc(C(=O)N[C@H]2CC[C@@H](Nc3cccc4sc(C(F)(F)F)cc34)CC2)c1` [2-6], the IC50 is under 50 nM in experiment [1] and 51 to 100 nM in experiment [2].

For the compound `O=C(N[C@H]1CC[C@@H](Nc2cccc3nc(C(F)(F)F)cn23)CC1)c1cccc(NCC(F)F)c1` [2-178], the IC50 in experiment [1] and in experiment [2] was under 50 nM throughout. As to `O=C(N[C@H]1CC[C@@H](Nc2cccc3nc(C(F)F)cn23)CC1)c1ccccc1NCCF` [2-222], the IC50 in experiment [1] was under 50 nM. Regarding `O=C(N[C@H]1CC[C@@H](Nc2cccc3nc(C(F)(F)F)cn23)CC1)c1cccc2c(F)n[nH]c12` [2-153], the IC50 in experiment [1] and in experiment [2] was under 50 nM in each case. `O=C(N[C@H]1CC[C@@H](Nc2cccc3sc(C(F)(F)F)cc23)CC1)c1ccc(F)cc1` [Example 1, 4-fluoro-N-((1s,4s)-4-((2-(trifluoromethyl)benzo[b]thiophen-4-yl)amino)cyclohexyl) benzamide]: the IC50 in experiment [1] was under 50 nM; in experiment [2], 101 to 500 nM.

(Values after patent publication US11667636B2, “Modulators of Mas-related G-protein receptor X2 and related products and methods” (Escient Pharmaceuticals, Inc., priority 2020, dated 2023).)
